Common to all, as to assay: DTP human tumour cell line panel, 48 h
Test [1] concerns ACHN renal.
The test system of test [2] is SF-295 CNS.
Test [3] has as its system SK-MEL-2 melanoma.
The subject of test [4] is M19-MEL melanoma.
For test [5], the system named is SNB-19 CNS.
The subject of test [6] is SNB-75 CNS.
Test [7] deals with SK-MEL-5 melanoma.
Test [8] concerns PC-3 prostate.
In test [9] the test system is DLD-1 colon.
In test [10] the test system is HT29 colon.

“And” between values parts separate entries of the source, which are not always exact repeats. Identical values can stand only once.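 Compound exposure: 48 hours, 5 concentrations, 96-well plates. GI50 = concentration required for 50% inhibition of growth. TGI is the concentration that stops growth completely.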 A value given as a limit tells only on which side of the number the result lay.

Experimental findings from PubChem BioAssay (NCI) are described below.

In general, TGI refers to the concentration giving total growth inhibition. A low value points to more potent growth arrest. By GI50 is commonly meant the concentration giving 50% growth inhibition. For `COc1cccc2c1C(=O)c1c(O)c3c(c(O)c1C2=O)CC(O)(C(O)CO)CC3OC1CC(N2CCOCC2)C(O)C(C)O1` (stereo not given), the TGI in test [1] is 122 nM; in [2] it was 71.8 nM and 106 nM; in test [3], 11.7 nM; in test [5] it was 139 nM and 801 nM; in test [6] it was 13.1 nM and 54.9 nM; in test [7], 5.53 nM and 33.2 nM. In addition, the TGI in test [8] worked out at 144 nM. In addition, the GI50 is 24.3 nM in test [2], less than 1 nM in [4], 30.5 nM in [5] and 17 nM in [7].
On to `Clc1ccc(N=Nc2nc3ccccc3nc2N=Nc2ccc(Cl)cc2Cl)c(Cl)c1`, for which the TGI in test [1], in test [2], in [3], in test [9], in [4] and in [5] was greater than 100000 nM in each case. Further, the TGI in test [6] is 93400 nM; in test [10], greater than 100000 nM.
For `CCN(CC)CCOc1ccc(CCc2cc(OC)c(OC)c(OC)c2)cc1`, the TGI was greater than 100000 nM in [1]; 50500 nM in test [2]; greater than 100000 nM in test [9]; 53800 nM in test [4]; greater than 100000 nM in test [5]; 94500 nM in test [6]. Besides, the TGI in [7] was found to be 29700 nM; in [10], 39000 nM.
Turning to `Cc1ccc(SSc2ccc(C)cc2C(=O)O)c(C(=O)O)c1`, the TGI in test [1], in test [2], in test [3], in [9], in test [4] and in [5] was greater than 100000 nM throughout. The TGI in test [7] and in test [10] was greater than 100000 nM each time.
Take `C=CCNC(=O)N(CCCC(NC(C)=O)C(=O)NCc1ccccc1)Cc1ccccc1` (stereo not given): the TGI in [1], in test [2], in [3], in test [4], in [5] and in [6] was greater than 100000 nM throughout. Moreover, the TGI in test [7] and in test [10] was greater than 100000 nM throughout.
`Cc1oc2c(C)c3oc(=O)cc(C)c3cc2c1CN1C(=O)C2OCCOCCOCCOCCOCCO[C@H]2C1=O` (stereo not given in full): the TGI in test [1], in test [2], in test [9], in test [4], in [5] and in [6] was greater than 100000 nM each time. The TGI in test [7] and in test [10] was greater than 100000 nM throughout.
Consider `COC1OC(CBr)C(OC(=O)c2ccccc2)C(O)C1Br` (stereo not given), for which the TGI in [2], in test [9], in [4], in [5], in test [7] and in test [10] was greater than 100000 nM each time.
On to `COc1cccc2c1ccc1nc3cccc(C(=O)N[C@H](C)CN(C)C)c3nc12`, for which the GI50 in test [1] was 42.6 nM; in test [2], 58.6 nM; in test [3], 175 nM; in test [5], 90.7 nM; in test [6] it was 205 nM; in [7], 125 nM. Also, the GI50 in test [10] is 42.7 nM; in [8] it was 81.9 nM. Also, the TGI in test [1] stood at 10600 nM; in test [2] it was 2580 nM; in [3], 643 nM; in test [5], 10900 nM; in test [6], 1160 nM; in test [7], 342 nM. In addition, the results for the TGI in [10] and in test [8] were 365 nM and 2130 nM, respectively.
`C=C1/C(=C\C=C2/CCC[C@]3(C)[C@@H]([C@H](C)CCCC(C)(C)O)CC[C@@H]23)C[C@@H](OC(=O)CBr)C[C@@H]1O`: the GI50 in test [1] was 709 nM; in [2], 6810 nM; in [3] it was 9750 nM; in test [5], 11200 nM; in test [6], less than 11.6 nM; in test [7], 2460 nM. Also, the GI50 was 1150 nM in test [10] and 1110 nM in test [8]. In addition, the TGI in test [1] worked out at 5130 nM; in test [2], 20300 nM; in [3], 28600 nM; in test [5], 24900 nM; in test [6] it was 109 nM; in [7], 6410 nM. Further, the TGI in test [10] was 10500 nM; in [8], 5880 nM.
As to `CNCCCn1c2c(c3ccc([N+](=O)[O-])cc3c1=O)C(=O)c1cc(OC)cnc1-2`, the GI50 in [1] is 36.1 nM; in test [2], 31.9 nM; in [3] it was 348 nM; in test [5], 39.4 nM; in test [6], 134 nM; in test [7], 107 nM. For the same compound, the GI50 in test [10] is 55.8 nM; in [8], 130 nM. For the same compound, the TGI is 149 nM in test [1]; 193 nM in test [2]; 994 nM in test [3]; 2070 nM in [5]; 2460 nM in test [6]; 279 nM in test [7]. The TGI in test [10] amounted to 380 nM; in test [8] it was 1880 nM.
As for `Cc1ccc(C(CC(=O)c2ccccc2)C2C(=O)NC(=O)NC2=O)cc1` (stereo not given), the GI50 in test [1], in test [2], in test [3], in [5], in test [6] and in test [7] was greater than 100000 nM throughout. The GI50 in [10] and in [8] was greater than 100000 nM throughout. Besides, the TGI in [1], in test [2], in test [3], in test [5], in [6] and in test [7] was greater than 100000 nM in each case. The TGI in test [10] and in test [8] was greater than 100000 nM each time.
On to `COc1cc2ccccc2oc1=O`, for which the TGI in test [1], in [2], in [3], in test [5], in test [6] and in test [7] was greater than 100000 nM throughout. Also, the TGI in test [10] and in [8] was greater than 100000 nM in each case.
Consider `Cc1cc(NCCN(C(C)C)C(C)C)nc(/N=C(\N)Nc2ccc(Cl)c(C(F)(F)F)c2)n1`, for which the GI50 in [1] is 381 nM; in test [2] it was 752 nM; in [3] it was 208 nM; in test [5], 1480 nM; in test [6], 449 nM; in test [7] it was 195 nM. For the same compound, the results for the GI50 in test [10] and in test [8] were 267 nM and 596 nM, respectively. Also, the TGI in test [1] is 1060 nM; in test [2], 2140 nM; in test [3], 388 nM; in [5], 2830 nM; in test [6] it was 1030 nM; in [7] it was 492 nM. The figures for the TGI in [10] and in [8] were 919 nM and 2450 nM, respectively.
